Data taken from PubChem BioAssay (NCI).
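96-well plates; 48 h exposure; 5 concentrations. Endpoints by linear interpolation between flanking doses. Not reached: highest tested concentration assigned. Definition used: TGI = concentration required for complete inhibition of growth.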

Key:
Experiment in all cases: growth of human tumour cells (NCI), 48 h
SN12C renal = tested on: SN12C renal
DLD-1 colon = tested on: DLD-1 colon
HCT-116 colon = tested on: HCT-116 colon
M19-MEL melanoma = tested on: M19-MEL melanoma
KM20L2 colon = tested on: KM20L2 colon
SR leukemia = tested on: SR leukemia
OVCAR-5 ovarian = tested on: OVCAR-5 ovarian
T-47D breast = tested on: T-47D breast
BT-549 breast = tested on: BT-549 breast

## CC1=C2CCCC2=C/C(=N/Nc2ccc([N+](=O)[O-])cc2[N+](=O)[O-])CC1
SN12C renal
  TGI: > 100 µM
DLD-1 colon
  TGI: > 100 µM
HCT-116 colon
  TGI: > 100 µM
M19-MEL melanoma
  TGI: > 100 µM
KM20L2 colon
  TGI: > 100 µM
SR leukemia
  TGI: > 100 µM
OVCAR-5 ovarian
  TGI: > 100 µM

## O=c1[nH]cc(COCCO)c(=O)[nH]1
SN12C renal
  TGI: > 100 µM
DLD-1 colon
  TGI: > 100 µM
HCT-116 colon
  TGI: > 100 µM
M19-MEL melanoma
  TGI: > 100 µM
KM20L2 colon
  TGI: > 100 µM
OVCAR-5 ovarian
  TGI: > 100 µM

## O=C1c2ccccc2C2(O)c3cc4ccccc4cc3OC12O (centres undefined)
SN12C renal
  TGI: > 100 µM
DLD-1 colon
  TGI: > 100 µM
HCT-116 colon
  TGI: > 100 µM
M19-MEL melanoma
  TGI: > 100 µM
KM20L2 colon
  TGI: > 100 µM
OVCAR-5 ovarian
  TGI: > 100 µM

## O=C(NCCCCN=c1cccccc1NCCCCNC(=O)OCc1ccccc1)OCc1ccccc1
SN12C renal
  TGI: 51.6 µM
DLD-1 colon
  TGI: 43.6 µM
HCT-116 colon
  TGI: 25 µM
M19-MEL melanoma
  TGI: 39.3 µM
KM20L2 colon
  TGI: 26.1 µM
OVCAR-5 ovarian
  TGI: 41.9 µM

## O=C1CC(C[C@H](O)C2CCCCC2O)CC(=O)N1Cc1ccccc1 (some centres undefined)
SN12C renal
  TGI: > 100 µM
DLD-1 colon
  TGI: > 100 µM
HCT-116 colon
  TGI: > 100 µM
M19-MEL melanoma
  TGI: > 100 µM
KM20L2 colon
  TGI: > 100 µM
SR leukemia
  TGI: > 100 µM
OVCAR-5 ovarian
  TGI: > 100 µM

## CCOc1ccc2c(c1)[n+]([O-])c(-c1ccccc1Cl)c(N)[n+]2[O-]
SN12C renal
  TGI: > 100 µM
DLD-1 colon
  TGI: > 100 µM
HCT-116 colon
  TGI: > 100 µM
M19-MEL melanoma
  TGI: > 100 µM
KM20L2 colon
  TGI: > 100 µM
SR leukemia
  TGI: > 100 µM
OVCAR-5 ovarian
  TGI: > 100 µM

## O=C(O)CSc1n[nH]c(-c2ccccc2)n1
SN12C renal
  TGI: > 100 µM
DLD-1 colon
  TGI: > 100 µM
M19-MEL melanoma
  TGI: > 100 µM
KM20L2 colon
  TGI: > 100 µM
OVCAR-5 ovarian
  TGI: > 100 µM

## CCOc1ccc(N2C(=O)/C(=C/c3ccc(N(CCC#N)CCC#N)cc3)N=C2c2cc([N+](=O)[O-])ccc2Cl)cc1
SN12C renal
  TGI: > 100 µM
DLD-1 colon
  TGI: > 100 µM
HCT-116 colon
  TGI: 39.5 µM
M19-MEL melanoma
  TGI: 66.5 µM
OVCAR-5 ovarian
  TGI: > 100 µM

## COc1ccc(/C(=N\NC(=O)C(N)=O)C(c2ccc(OC)cc2)C2(O)C(=O)Nc3c(Cl)cccc32)cc1 (centres undefined)
SN12C renal
  TGI: > 100 µM
DLD-1 colon
  TGI: > 100 µM
HCT-116 colon
  TGI: > 100 µM
M19-MEL melanoma
  TGI: > 100 µM
KM20L2 colon
  TGI: > 100 µM
OVCAR-5 ovarian
  TGI: > 100 µM

## CCOC(=O)NC(=O)c1cn(CCOC(=O)NCCCCCCNC(=O)OCCn2cc(C(=O)NC(=O)OCC)c(=O)[nH]c2=O)c(=O)[nH]c1=O
SN12C renal
  TGI: > 100 µM
DLD-1 colon
  TGI: > 100 µM
HCT-116 colon
  TGI: > 100 µM
M19-MEL melanoma
  TGI: > 100 µM
KM20L2 colon
  TGI: > 100 µM

## O=C(c1ccc(Cl)cc1)c1cnc(Nc2ccccc2Cl)s1
SN12C renal
  TGI: 52.1 µM
DLD-1 colon
  TGI: > 100 µM
HCT-116 colon
  TGI: 41.7 µM
M19-MEL melanoma
  TGI: > 100 µM
T-47D breast
  TGI: 47.9 µM
BT-549 breast
  TGI: 51.2 µM
SR leukemia
  TGI: > 100 µM
OVCAR-5 ovarian
  TGI: 95.5 µM

## CCOC(=O)C(C)(C)Oc1ccc2c(C)c(-c3ccc(Cl)cc3)c(=O)oc2c1
SN12C renal
  TGI: > 100 µM
DLD-1 colon
  TGI: > 100 µM
HCT-116 colon
  TGI: > 100 µM
M19-MEL melanoma
  TGI: > 100 µM
KM20L2 colon
  TGI: > 100 µM
SR leukemia
  TGI: > 100 µM
